The target in one assay is CDK4/Cyclin D1 (Homo sapiens (Human), UniProt P11802). Briefly: CDK4/Cyclin D1 kinase TR-FRET inhibition assay. Conditions: 1 mM ATP, Rb (Ser780)-biotin substrate, read-out: CDK4D1 IC50. In kind it is biochemical. In outline:
(§1)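 Kinase preincubated 60 min at room temperature with 0–10 μM compound; reaction started with 1 mM ATP and 0.15 μM Rb (Ser780)-biotin, run 120 min at room temperature in HEPES pH 7.0, 50 mM MgCl2. pRb detected by TR-FRET (665/620 nm ratio); IC50 from four-parameter logistic fit.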

In a further assay the target is CDK6/Cyclin D3 (Homo sapiens (Human), UniProt Q00534). Briefly: CDK6/Cyclin D3 kinase TR-FRET inhibition assay. Type of assay: biochemical. The settings on record: 1 mM ATP, Rb (Ser780)-biotin substrate, read-out: CDK6D3 IC50. In outline:
as §1

By IC50 is commonly meant the concentration at which inhibition is half-maximal.

Sequence of CDK6/Cyclin D3 (Q00534 whole entry): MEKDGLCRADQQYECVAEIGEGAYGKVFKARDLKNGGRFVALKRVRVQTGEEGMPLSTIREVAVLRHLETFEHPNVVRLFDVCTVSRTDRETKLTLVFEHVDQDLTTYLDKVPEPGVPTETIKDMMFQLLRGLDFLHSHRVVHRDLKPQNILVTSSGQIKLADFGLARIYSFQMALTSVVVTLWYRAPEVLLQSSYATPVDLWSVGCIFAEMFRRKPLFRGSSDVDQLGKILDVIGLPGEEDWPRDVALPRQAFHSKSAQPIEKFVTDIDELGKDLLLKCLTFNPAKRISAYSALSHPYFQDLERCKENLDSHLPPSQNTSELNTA
Sequence of CDK6/Cyclin D3 (P30281 whole entry partner): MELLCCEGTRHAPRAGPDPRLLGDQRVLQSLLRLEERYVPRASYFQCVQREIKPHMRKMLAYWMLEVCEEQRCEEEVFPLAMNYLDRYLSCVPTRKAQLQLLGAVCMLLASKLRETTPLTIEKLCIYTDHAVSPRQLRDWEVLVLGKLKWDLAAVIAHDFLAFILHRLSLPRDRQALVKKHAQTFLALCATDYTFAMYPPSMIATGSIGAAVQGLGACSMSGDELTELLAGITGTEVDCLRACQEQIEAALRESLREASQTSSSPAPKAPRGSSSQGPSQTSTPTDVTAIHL
Sequence of CDK4/Cyclin D1 (P11802 whole entry): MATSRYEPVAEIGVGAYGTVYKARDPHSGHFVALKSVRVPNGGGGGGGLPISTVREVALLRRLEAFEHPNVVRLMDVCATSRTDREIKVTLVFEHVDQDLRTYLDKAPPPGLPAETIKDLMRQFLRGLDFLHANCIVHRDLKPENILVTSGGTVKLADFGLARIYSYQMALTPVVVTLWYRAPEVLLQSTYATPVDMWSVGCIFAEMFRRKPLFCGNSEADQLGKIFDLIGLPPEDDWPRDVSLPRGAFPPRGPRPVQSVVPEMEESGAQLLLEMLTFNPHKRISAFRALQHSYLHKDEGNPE
Sequence of CDK4/Cyclin D1 (P24385 whole entry partner): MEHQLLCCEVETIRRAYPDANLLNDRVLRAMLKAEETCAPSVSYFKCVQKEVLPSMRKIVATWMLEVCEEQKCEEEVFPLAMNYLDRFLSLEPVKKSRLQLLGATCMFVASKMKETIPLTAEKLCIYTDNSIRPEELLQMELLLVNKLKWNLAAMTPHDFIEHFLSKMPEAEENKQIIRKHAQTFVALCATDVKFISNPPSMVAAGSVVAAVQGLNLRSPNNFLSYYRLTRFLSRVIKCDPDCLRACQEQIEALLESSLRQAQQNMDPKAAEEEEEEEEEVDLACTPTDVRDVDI

In the case of `Cc1c(-c2nc(N[C@@H]3CCOC[C@H]3O)ncc2F)ccc2ncc(CN)c(C(C)C)c12` [Example 145, (3S,4R)-4-((4-(3-(aminomethyl)-4-isopropyl-5-methylquinolin-6-yl)-5-fluoropyrimidin-2-yl)amino)tetrahydro-2H-pyran-3-ol], the IC50 worked out at 1.7 nM at CDK4/Cyclin D1 and 66.1 nM on CDK6/Cyclin D3.
For `CC(C)c1cc(C(C)(C)O)nc2ccc(-c3nc(N[C@@H]4CCOC[C@H]4O)ncc3F)cc12` [Example 206, (3S,4R)-4-((5-fluoro-4-(2-(2-hydroxypropan-2-yl)-4-isopropylquinolin-6-yl)pyrimidin-2-yl)amino)tetrahydro-2H-pyran-3-ol] the same measures were 185 nM and 1500 nM.
For `CC(C)c1nc(C(C)(C)O)nc2ccc(-c3nc(N[C@@H]4CCOC[C@H]4O)ncc3F)cc12` [Example 207, (3S,4R)-4-((5-fluoro-4-(2-(2-hydroxypropan-2-yl)-4-isopropylquinazolin-6-yl)pyrimidin-2-yl)amino)tetrahydro-2H-pyran-3-ol] the same measures were 536 nM and 3020 nM.
For `CC(C)c1cc(C(C)(C)O)nc2c(F)cc(-c3nc(N[C@@H]4CCOC[C@H]4O)ncc3Cl)cc12` [Example 208, (3S,4R)-4-((5-chloro-4-(8-fluoro-2-(2-hydroxypropan-2-yl)-4-isopropylquinolin-6-yl)pyrimidin-2-yl)amino)tetrahydro-2H-pyran-3-ol] the same measures were 146 nM and 497 nM.
As for `CC(C)c1nc(C(C)(C)O)nc2c(F)cc(-c3nc(N[C@@H]4CCOC[C@H]4O)ncc3Cl)cc12` [Example 209, (3S,4R)-4-((5-chloro-4-(8-fluoro-2-(2-hydroxypropan-2-yl)-4-isopropylquinazolin-6-yl)pyrimidin-2-yl)amino)tetrahydro-2H-pyran-3-ol], the results for the IC50 at CDK4/Cyclin D1 and on CDK6/Cyclin D3 were 1770 nM and 4990 nM, respectively.
